Values quoted from earlier work in patent US11839662B2, “Compositions for neuromodulation of mosquito feeding behavior and uses thereof” (University of Central Florida Research Foundation, Inc., priority 2017, dated 2023).

Clc1cccc(Cl)c1N=C1NCCN1 [Clonidine]
effect on oviposition and larval hatch rate (Anopheles gambiae): decrease oviposition and larval hatch rate

CC1(C)CCC[C@]2(C)[C@@H](C=O)C(C=O)=CC[C@@H]12 [Polygodial]
repellant and larvicidal effect (mosquitoes): repellant ability in mosquitoes and act as a larvacide
